We go through two molecules from US8673889B2, “BLT2-mediated disease, BLT2 binding agent and the compound” (Ono Pharmaceutical Co., Ltd., priority 2004, dated 2014).

Holding throughout (format): cell-based
One test has as its target T1, BLT2 (Homo sapiens, UniProt Q9NPC1).
T1 sequence (Q9NPC1 1-358): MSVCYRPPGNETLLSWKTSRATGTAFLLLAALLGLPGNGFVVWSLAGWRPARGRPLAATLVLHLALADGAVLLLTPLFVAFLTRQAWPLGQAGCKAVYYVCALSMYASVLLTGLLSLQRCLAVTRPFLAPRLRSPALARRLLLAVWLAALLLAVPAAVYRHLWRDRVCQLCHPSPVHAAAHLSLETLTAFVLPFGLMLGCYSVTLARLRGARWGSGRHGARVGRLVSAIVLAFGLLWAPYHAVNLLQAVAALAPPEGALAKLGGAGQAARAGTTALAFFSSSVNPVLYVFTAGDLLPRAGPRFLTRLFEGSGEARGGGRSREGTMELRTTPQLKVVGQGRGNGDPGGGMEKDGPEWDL
Briefly: Evaluation of BLT2 agonistic activity by monitoring the variation of intracellular Ca2+ concentration. Also on record: expressed in transfected cells.

A further test deals with BLT1 (Homo sapiens, UniProt Q15722). Briefly: BLT1 agonistic activity measured by the same way (intracellular Ca2+). Particulars: measured by the same way as BLT2.
The target in test [1] is T2, mBLT1 (Mus musculus, UniProt O88855).
T2 construct: expressed in transfected cells; host or cells: CHO cells
Briefly: ERK phosphorylation (1) in mBLT1-expressing CHO cells. Particulars: ligand 5 minutes, FIG. 5.

In test [2] the target is T2, mBLT1. Briefly: Measurement of intracellular Ca2+ concentration in mBLT1-expressing CHO cells. Particulars: FIG. 4.
The test system of the next test is mock. Briefly: Measurement of intracellular Ca2+ concentration in mock cells. Particulars: FIG. 4. How it is done: (§1) mBLT2-expressing CHO cells prepared by Biological Example 3 were cultured in modified Hepes-Tyrode's BSA buffer (Hepes-NaOH (25 mM, pH7.4), NaCl (140 mM), KCl (2.7 mM), CaCl2(10 nM), NaHCO3(12 mM), D-Glucose (5.6 mM), NaH2PO4(0.37 mM), MgCl2(0.49 mM), cremophour (0.01%), fatty acid-free BSA (fraction V, 0.1w/v %)) containing fluorochrome (Fura-2 AM [Dojin], 3 μm) at 37° C. for 2 hours to make to take fluorochrome. These cells were washed 2 times and resuspended (10^6 cells/mL) in Hepes-Tyrode's BSA buffer. The cell suspension (0.5 mL) was applied to fluorescent intensity meter (CAF-100 system [Jasco]). Dimethylsulfoxide (DMSO) solution (5 μL) containing ligand was added to the cell suspension, of which the intracellular calcium concentration was monitored (excitation wavelength 340 nm and 380 nm and fluorescent wave-length 510 nm).

In test [3] the test system is mouse primary culture keratinocytes. Briefly: ERK phosphorylation (2) in mouse primary culture keratinocytes. Particulars: FIG. 7.
Test [4] has as its target T3, mBLT2 (Mus musculus, UniProt Q9JJL9).
T3 construct: mBLT2 ORF was amplified by PCR using a sense primer having BamHI restriction enzyme site; expressed in transfected cells
T3 sequence (Q9JJL9 1-360): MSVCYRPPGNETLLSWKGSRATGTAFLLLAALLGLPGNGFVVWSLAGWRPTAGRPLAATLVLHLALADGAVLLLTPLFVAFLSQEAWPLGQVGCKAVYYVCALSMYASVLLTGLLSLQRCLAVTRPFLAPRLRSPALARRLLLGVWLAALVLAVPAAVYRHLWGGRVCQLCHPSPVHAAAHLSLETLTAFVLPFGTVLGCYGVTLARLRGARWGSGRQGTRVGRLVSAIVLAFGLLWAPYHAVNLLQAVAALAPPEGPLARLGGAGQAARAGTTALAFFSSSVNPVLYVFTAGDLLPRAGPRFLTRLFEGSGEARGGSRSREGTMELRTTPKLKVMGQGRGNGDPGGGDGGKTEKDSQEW
Briefly: Measurement of intracellular Ca2+ concentration in mBLT2-expressing CHO cells. The conditions noted are these: FIG. 4, read-out: EC50 value, rise of the intracellular calcium concentration.
Source text: mBLT2 ORF was amplified by PCR using a sense primer having BamHI restriction enzyme site (sense primer; 5′-[…]-3′ (SEQ ID NO.1)) and an antisense primer having EcoRI restriction enzyme site (antisense primer; 5′-[…]-3′ (SEQ ID NO.2)). The PCR product was digested with BamHI and EcoRI and inserted in expression plasmid (pcDNA3 Invitrogen). The inserted sequence was confirmed by the DNA sequence. Plasmid DNA ([…]) was transfected into CHO cells cultured in Ham's F-12 medium containing 10% fetal bovine serum and antibiotic (streptomycin (100 μg/mL) and penicillin (100 μg/L)) in cell culture plates (6 cm). The resistant strains were obtained by culturing for 2 weeks in the existence of antibiotic (G418 [Wako], 1 mg/mL). […]
as §1, with “These cells were washed 2 times and resuspended (10^6 cells/mL) in Hepes-Tyrode's BSA buffer. The cell suspension (0.5 mL) was applied to fluorescent intensity meter (CAF-100 system [Jasco]).” left out

Test [5] has as its target T3, mBLT2. Briefly: ERK phosphorylation (1) in mBLT2-expressing CHO cells. Particulars: ligand 5 minutes, FIG. 5. From the text: mBLT2 ORF was amplified by PCR using a sense primer having BamHI restriction enzyme site (sense primer; 5′-[…]-3′ (SEQ ID NO.1)) and an antisense primer having EcoRI restriction enzyme site (antisense primer; 5′-[…]-3′ (SEQ ID NO.2)). The PCR product was digested with BamHI and EcoRI and inserted in expression plasmid (pcDNA3 Invitrogen). The inserted sequence was confirmed by the DNA sequence. Plasmid DNA ([…]) was transfected into CHO cells cultured in Ham's F-12 medium containing 10% fetal bovine serum and antibiotic (streptomycin (100 μg/mL) and penicillin (100 μg/L)) in cell culture plates (6 cm). The resistant strains were obtained by culturing for 2 weeks in the existence of antibiotic (G418 [Wako], 1 mg/mL). The stable expressing strains were obtained by culturing 19 obtained resistant strains with limiting dilution method.

T2 sequence (O88855 whole entry): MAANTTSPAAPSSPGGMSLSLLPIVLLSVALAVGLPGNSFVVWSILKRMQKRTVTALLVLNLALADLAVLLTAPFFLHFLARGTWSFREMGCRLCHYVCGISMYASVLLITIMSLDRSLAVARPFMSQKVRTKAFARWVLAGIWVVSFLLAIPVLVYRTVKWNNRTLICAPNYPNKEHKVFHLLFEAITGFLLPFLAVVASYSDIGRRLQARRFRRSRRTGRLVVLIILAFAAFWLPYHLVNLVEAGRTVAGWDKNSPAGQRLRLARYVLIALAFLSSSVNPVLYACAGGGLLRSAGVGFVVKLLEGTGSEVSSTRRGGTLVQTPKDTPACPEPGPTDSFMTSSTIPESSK
Sequence of BLT1 (Q15722 whole entry, species assumed): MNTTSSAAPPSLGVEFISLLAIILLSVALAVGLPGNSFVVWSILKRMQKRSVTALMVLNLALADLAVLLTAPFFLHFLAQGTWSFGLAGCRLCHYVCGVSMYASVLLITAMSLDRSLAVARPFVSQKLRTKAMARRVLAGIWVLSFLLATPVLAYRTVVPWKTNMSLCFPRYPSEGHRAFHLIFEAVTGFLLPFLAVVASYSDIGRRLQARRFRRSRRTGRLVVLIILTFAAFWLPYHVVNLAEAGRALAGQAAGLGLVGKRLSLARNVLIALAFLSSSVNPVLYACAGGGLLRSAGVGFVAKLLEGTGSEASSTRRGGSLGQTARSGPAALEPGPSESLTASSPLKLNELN

Take `O=C(Cc1ccccc1)NCc1ccc(-c2ccccc2C(=O)O)cc1` [Example 13, 4′-{[(phenylacetyl)amino]methyl}-1,1′-biphenyl-2-carboxylic acid]: the concentration for half-maximal inhibition (IC50) – broadly, the midpoint of a concentration-inhibition curve – on BLT2 is 45 nM. On BLT1, the BLT1 agonistic activity result is “did not have BLT1 agonistic activity”.

On to `CCCCC(=O)N(Cc1ccc(-c2ccccc2C(=O)O)cc1)c1ccccc1` [compound A, 4′-{[pentanoyl(phenyl)amino]methyl}-1,1′-biphenyl-2-carboxylic acid], for which the values for the ERK phosphorylation entry (at mBLT1 [1]; in test [3]; at mBLT2 [5]) were “induced”, “induced ERK phosphorylation” and “induced”, respectively. Also, the “rise of intracellular calcium concentration” value on mBLT1 [2] and with mock was “not rised” throughout. Moreover, at mBLT2 [4], the EC50 was found to be 21 nM.
